From US20090221543A1, “NEW CORTICOSTEROIDS” (NICOX S A., priority 2002, published 2009)
Read-outs that look alike come from different tables or passages of the source.

What was measured:
[1] = tested on: bronchoconstriction caused by histamine; experiment: Bronchoconstriction caused by histamine in guinea pigs (sGaw, whole body plethysmography); type: in vivo
Experimental: Male guinea pigs weighing between 250 and 300 g for several days before the beginning of the experiment have been accustomed to the restrained and whole-body plethysmograph. Histamine (3 mM dissolved in saline solution 0.9%) has been administered by intranasal route for 20 seconds 24 hours before and 15 minutes after the administration of the tested compounds. NO-Budesonide (635: g/ml) and Budesonide (448: g/ml) dissolved in a mixture (v/v) DMSO 20%, ethanol 10%, saline physiological solution 70%, or the carrier, have been administered to the animals as aerosols, in a sealed room, using a wright nebulizer operating by compressed air at a pressure of 21.38×10^3 Pa (20 p.s.i.) and a flow of 0.5 ml/min. The administration lasted 15 minutes.
To monitor the functionality of the animal airways the “whole body” plethysmography has been used. The animals were watchful and functionality has been determined as specific conductance of the airways (sGaw), expressed in % change of the basal value in the instant immediately after the exposure. To this purpose the animals were provided with a suitable mask and then transferred in a sealed room. The respiratory flow has been determined by a pneumotachograph and a pressure transducer.

glucocorticoid receptor = molecular target: T1, glucocorticoid receptor (Homo sapiens, UniProt P04150); experiment: GR binding assay: displacement of 3H-dexamethasone from glucocorticoid binding sites in human monocytes; conditions: 3H-dexamethasone 50 nM, 37° C., 1 hour
T1 construct: The monocytes have been isolated from human blood by a method based on a density gradient; endogenous in cells; host or cells: primary human blood monocytes (Ficoll-Hypaque isolated), intact cells
T1 sequence (P04150 1-777): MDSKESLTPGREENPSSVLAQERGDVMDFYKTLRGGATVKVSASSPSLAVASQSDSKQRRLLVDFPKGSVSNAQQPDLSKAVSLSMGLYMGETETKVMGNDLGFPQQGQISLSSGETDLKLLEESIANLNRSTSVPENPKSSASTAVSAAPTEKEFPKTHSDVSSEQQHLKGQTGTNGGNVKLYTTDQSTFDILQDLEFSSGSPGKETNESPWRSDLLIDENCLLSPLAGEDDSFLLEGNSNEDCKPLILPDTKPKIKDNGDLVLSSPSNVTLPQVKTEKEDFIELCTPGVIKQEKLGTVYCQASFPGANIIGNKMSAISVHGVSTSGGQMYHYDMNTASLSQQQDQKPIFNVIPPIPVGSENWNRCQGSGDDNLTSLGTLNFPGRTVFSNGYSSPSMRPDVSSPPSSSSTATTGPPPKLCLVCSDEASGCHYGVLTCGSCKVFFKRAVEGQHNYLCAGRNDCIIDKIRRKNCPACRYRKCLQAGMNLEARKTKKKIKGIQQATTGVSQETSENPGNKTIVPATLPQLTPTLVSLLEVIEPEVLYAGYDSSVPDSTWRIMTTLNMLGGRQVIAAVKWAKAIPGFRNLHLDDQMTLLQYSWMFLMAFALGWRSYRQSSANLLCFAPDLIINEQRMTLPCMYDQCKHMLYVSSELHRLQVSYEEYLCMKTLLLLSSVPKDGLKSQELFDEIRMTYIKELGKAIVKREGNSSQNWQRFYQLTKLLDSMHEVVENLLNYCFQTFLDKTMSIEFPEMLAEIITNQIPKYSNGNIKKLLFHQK
Experimental: In these experiments human monocytes having on their surface receptors for glucocorticoids have been used.
In this experiment the capability of the tested substances to displace ^3H-dexamethasone from the bond sites for the glucorticoids present in human monocytes has been evaluated.
The test tube content has been mixed using a Vortex equipment. The test tubes have then been incubated at 37° C. for 1 hour.
After incubation, the cells have been washed 4 times with a saline solution in phosphate buffer cooled in ice bath (PBS, 0.01 M) and the amount of [^3H]-dexamethasone bound to the cells has been determined by liquid scintigraphy. For each sample the concentration of [^3H]-dexamethasone bound to the cells (femtomoles (fmoles)/ml 10^−15 moles/ml) has been calculated by substracting from the measured values the non specific bond value, and then multiplying by the ratio molarity/radioactivity.
The data reported in the Tables are expressed in fmole [^3H]-dexamethasone/ml.

[2] = tested on: gastric damage caused by ischaemia-reperfusion; experiment: Gastric damage caused by ischaemia-reperfusion in rats; conditions: 28 :moles/kg by os 2 hours before the ischaemia; control 3 ± 1
[3] = tested on: spinal lesions from trauma; experiment: Recovery of motor functions after spinal lesions from trauma in rats (BBB score); conditions: 20 mg/kg s.c. once a day for 5 days
[4] = tested on: arthritis caused by collagen; experiment: Anti-arthritic activity in collagen-induced arthritis in rats; type: in vivo, Lewis rats; conditions: 4 :moles/kg i.p.; for Hind Legs Articulations Sizes: day 12 to 18, measured on day 18, control 7.03, naive 5.9; for histological analysis of the articulations: day 18; for Leg Average Volume: plethysmometer, control 1.5, naive 1.1; for Hip Functionality Evaluation (Score): score 0 (absence of inflammation) to 3 (serious inflammation), control 1.6; for Hind Legs Articulations Reduction %: with respect to the control group treated only with collagen suspension
Experimental: Lewis female rats weighing 150-200 g fed by a standard diet and with free access to water have been stabulated with cycles of 12 hours light/dark.
To carry out the experiment, the rats were anaesthetized with halothane (day zero), then at the base of the tail, by intradermal injection, a collagen suspension II/Freund's incomplete adjuvant (400: g/rat) was injected, prepared as described hereinafter: nasal bovine collagen of type II (Sigma-Aldrich, 4 mg/ml) has been dissolved in acetic acid (0.01 M) and emulsified with a same volume of cold Freund's incomplete adjuvant (Sigma-Aldrich).
The arthritic pathology became evident between the 11th and the 13th day, with a maximum inflammation at the 18th day in untreated rats.
From the 12th to the 18th day subsequent to the injection, the rats, divided in 3 groups of 10 animals each, have been treated i.p. according to the following protocol:
A fourth group of healthy rats (naive) has been taken as a further reference.
During the treatment with the tested compounds the antiarthritic activity has been evaluated by the following parameters: • average paw volume determined by a plethysmometer; • clinical evaluation of the hip functionality by an arbitrary score from 0 (absence of inflammation) to 3 (serious inflammation, which affects both the hip articulation and the animal paw).
On the 18th day the rats were sacrificed and the diameters of the femoral articulations of the animal hind legs were determined after skin removal; and an histological analysis of the articulations was carried out.
In table 5 there are reported: • the articulation sizes expressed in mm, • the percent reduction of the articulation size calculated with respect to the control rat group treated only with the collagen suspension, • the paw average volume, expressed in ml, daily determined, • the score evaluation of the hip functionality.

[5] = type: in vivo, Sprague Dawley rats; conditions: 5 mg/Kg/die i.p. for 3 weeks
Experimental: […]. The controls have been treated with the carrier (peanut oil 0.5 ml/rat/die i.p. for 3). At the end of the treatment the average arterial pressure (MABP) and the heart-beat have been controlled in the rats. […]. treated group 348±18, n=9).

primary rat osteoclastes [6] = conditions: 18 h, 1 nM
primary rat osteoclastes [7] = experiment: Osteoclastic activity in vitro (reabsorption areas on calcium phosphate plaques); conditions: 1 nM, 18 hours at 37° C.; control 100
[8] = t0 = 24 hours before the inhalation of the tested compound
[9] = t1 = 15 minutes after the inhalation of the tested compound, aerosol for 15 minutes, equimolar doses (635 / 448 :g/ml)

CCCC1O[C@@H]2C[C@H]3[C@@H]4CCC5=CC(=O)C=C[C@]5(C)[C@H]4[C@@H](O)C[C@]3(C)[C@]2(C(=O)CO)O1 (stereo partly drawn) [Budesonide, reference compound]
specific conductance of the airways (sGaw), % change of the basal value after histamine [1, 8]: −28.7 ± 8.8%
specific conductance of the airways (sGaw), % change of the basal value after histamine [1, 9]: −42.6 ± 15.9%

CCCC1O[C@@H]2CC3C4CCC5=CC(=O)C=C[C@]5(C)C4[C@@H](O)C[C@]3(C)[C@]2(C(=O)COC(=O)c2ccc(CO[N+](=O)[O-])cc2)O1 (stereo partly drawn) [Budesonide-NO, Budesonide 21-(4′-nitrooxymethyl)benzoate]
inhibition of the bronchoconstriction caused by histamine ([1]; aerosol, equimolar doses): 100%
specific conductance of the airways (sGaw), % change of the basal value after histamine [1, 8]: −29.7 ± 9.8%
specific conductance of the airways (sGaw), % change of the basal value after histamine [1, 9]: +1.4 ± 7.9%

C[C@@H]1CC2C3CCC4=CC(=O)C=C[C@]4(C)[C@@]3(F)[C@@H](O)C[C@]2(C)[C@@]1(O)C(=O)COC(=O)c1ccc(CO[N+](=O)[O-])cc1 (stereo partly drawn) [Dex-Ar—ONO2, Dexamethasone 21-(4′-nitrooxymethyl)benzoate]
Bound 3H Dexamethasone (glucocorticoid receptor; tested compound 0.1 μM): 1.1 fmol/mL

C[C@]12CCC(=O)C=C1CCC1C2[C@@H](O)C[C@@]2(C)C1CC[C@]2(O)C(=O)COC(=O)c1ccc(CO[N+](=O)[O-])cc1 (stereo partly drawn) [Hydr-Ar—ONO2, Hydrocortisone 21-(4′-nitrooxymethyl)benzoate]
Bound 3H Dexamethasone (glucocorticoid receptor; tested compound 0.3 :M): 17.3 fmol/mL
Bound 3H Dexamethasone (glucocorticoid receptor; tested compound 10 :M): 0 fmol/mL

C[C@]12CCC(=O)C=C1CC[C@@H]1[C@@H]2[C@@H](O)C[C@@]2(C)[C@H]1CC[C@]2(O)C(=O)COC(=O)CCCO[N+](=O)[O-] [Hydr-C4—ONO2, Hydrocortisone-21-(4-nitrooxybutyrate), reference compound]
Bound 3H Dexamethasone (glucocorticoid receptor; tested compound 0.3 :M): 25.6 fmol/mL
Bound 3H Dexamethasone (glucocorticoid receptor; tested compound 10 :M): 4.3 fmol/mL

C[C@]12C=CC(=O)C=C1CCC1C2[C@@H](O)C[C@@]2(C)C1CC[C@]2(O)C(=O)COC(=O)c1ccc(CO[N+](=O)[O-])cc1 (stereo partly drawn) [Predn-Ar—ONO2, Prednisolone 21-(4′-nitrooxymethyl)benzoate]
Bound 3H Dexamethasone (glucocorticoid receptor; tested compound 1 μM): 0 fmol/mL
Lesion Index (LI) [2]: 7 ± 2.1
Motor Behaviour Evaluation (BBB score) ([3]; 3rd day after trauma, 0 = does not walk, 20 = normal, control 4): 8
Motor Behaviour Evaluation (BBB score) ([3]; 5th day after trauma, control 6): 14
Motor Behaviour Evaluation (BBB score) ([3]; 7th day after trauma, control 8): 17
Hind Legs Articulations Sizes [4]: 5.7 mm
histological analysis of the articulations [4]: both the synovial inflammation and the infiltration of inflammatory cells in cartilages were minimal, without compromising the cartilages
Leg Average Volume [4]: 1.1 mL
Hip Functionality Evaluation (Score) [4]: 0.1 Score
Hind Legs Articulations Reduction % [4]: 18.6%
heart-beat ([5]; control 330±32): 348±18
average arterial pressure (MABP) ([5]; controls 110±4): 128±7
% Reabsorbed Area with Respect to Control Area (primary rat osteoclastes [6]): 90%

C[C@]12C=CC(=O)C=C1CC[C@@H]1[C@@H]2[C@@H](O)C[C@@]2(C)[C@H]1CC[C@]2(O)C(=O)COC(=O)CCCO[N+](=O)[O-] [Predn-C4—ONO2, Prednisolone 21-(4-nitrooxy)butyrate, reference compound]
Bound 3H Dexamethasone (glucocorticoid receptor; tested compound 1 μM): 9.9 fmol/mL

C[C@]12C=CC(=O)C=C1CC[C@@H]1[C@@H]2[C@@H](O)C[C@@]2(C)[C@H]1CC[C@]2(O)C(=O)COC(=O)CN1CCN(CCCO[N+](=O)[O-])CC1.O=C(O)C(F)(F)F.O=C(O)C(F)(F)F [Predn-pyper-C3—ONO2, Prednisolone-21-[2-[4-(3-nitrooxypropyl)piperazin-1-yl]acetate]bis-trifluoromethanacetate]
Bound 3H Dexamethasone (glucocorticoid receptor; tested compound 1 μM): 2.4 fmol/mL

C[C@]12C=CC(=O)C=C1CC[C@@H]1[C@@H]2[C@@H](O)C[C@@]2(C)[C@H]1CC[C@]2(O)C(=O)COC(=O)CN1CCN(CCCO[N+](=O)[O-])CC1.Cl.Cl [Predn-pyper-ONO2, Prednisolone-21-[2-[4-(3-nitrooxypropyl)piperazin-1-yl]acetate]bishydrochloride]
Bound 3H Dexamethasone (glucocorticoid receptor; tested compound 1 μM): 5.5 fmol/mL

C[C@]12C=CC(=O)C=C1CC[C@@H]1[C@@H]2[C@@H](O)C[C@@]2(C)[C@H]1CC[C@]2(O)C(=O)CO [Prednisolone, reference compound]
Lesion Index (LI) [2]: 44 ± 2.5
Hind Legs Articulations Sizes [4]: 6.1 mm
histological analysis of the articulations [4]: cartilage ulcerations and synovial inflammation were present
Leg Average Volume [4]: 1.26 mL
Hip Functionality Evaluation (Score) [4]: 0.6 Score
Hind Legs Articulations Reduction % [4]: 12.7%
% Reabsorbed Area with Respect to Control Area (primary rat osteoclastes [7]): 148%
